Measured values as given in patent publication US20210172002A1, “DETECTING CELL VITALITY” (THE UNIVERSITY OF WARWICK, priority 2018, published 2021).

Experiments:
E. coli = test: Fluorescence response to an electric field in a mixed culture in the presence of vancomycin (FIG. 6); assay type: cell-based, Escherichia coli; details: E. coli cells in mixed culture with B. subtilis in the presence of vancomycin; trace 602 of FIG. 6
Excerpt: (§1) In an experimental setup, bacterial cells were inoculated on agarose pads and placed on the electrode surface, enabling monitoring of cells at single-cell resolution by microscopy. The membrane potential dynamics of cells was monitored using the fluorescent Nernstian indicator dye, Thioflavin T (ThT), which has been used extensively with bacteria.
When a series of electrical pulses (±1.5 V AC 0.1 kHz for 2.5 seconds) were applied to E. coli (K12 strain) cells placed in the electrode gaps, the pulses caused hyperpolarization (seen by an increase of ThT fluorescence signal) in vital cells. FIG. 3 illustrates the effect of applying an electric field across a sample 304 as viewed between a pair of opposing electrodes 301, 302 in an apparatus of the type illustrated in FIG. 1. […] An electric field was then applied, and the image shown represents the difference in fluorescence over a period of time after the application of the electric field. […] This provides a clear indication that the change in fluorescence is an indication of the vitality of cells within the sample.
(§2) In the mixed culture. […] The presence of E. coli or other coliforms could therefore be confirmed through fluorescence analysis of a sample treated with a selective antibiotic such as vancomycin.

B. subtilis = test: as above; assay type: cell-based, Bacillus subtilis; details: vancomycin treated B. subtilis cells in mixed culture with E. coli; trace 601 of FIG. 6
Excerpt: as §1
The sample (shown in FIG. 3) was subjected to alternating 3V pulses at a frequency of 100 Hz for 2.5 seconds. The mean response 501 of ten UV-treated cells is shown in FIG. 5 alongside the mean response 502 of ten non-UV-treated cells.
as §2

Question: With `CN[C@H](CC(C)C)C(=O)N[C@H]1C(=O)N[C@@H](CC(N)=O)C(=O)N[C@H]2C(=O)N[C@H]3C(=O)N[C@H](C(=O)N[C@H](C(=O)O)c4cc(O)cc(O)c4-c4cc3ccc4O)[C@H](O)c3ccc(c(Cl)c3)Oc3cc2cc(c3O[C@@H]2O[C@H](CO)[C@@H](O)[C@H](O)[C@H]2O[C@H]2C[C@](C)(N)[C@H](O)[C@H](C)O2)Oc2ccc(cc2Cl)[C@H]1O` [vancomycin] as the compound, how does the “log of a fluorescent response (membrane potential change)” value (E. coli) read?
Answer: Its value is “hyperpolarized”.

Question: What about the “log of a fluorescent response (membrane potential change)” value (B. subtilis) of the same compound?
Answer: Its value is “depolarization”.
